Source: patent publication US20150258107A1, “METHODS AND COMPOSITIONS FOR TREATING DEPRESSION” (DemeRx, Inc., priority 2014, published 2015)

Experiments:
[1] = Pharmacokinetics in opioid-dependent patients (Phase IB study); format: in vivo, human; details: 60, 120, 180 mg
Method: (§1) Three cohorts of nine (9) subjects (6 administered noribogaine and 3 administered placebo in each cohort) were evaluated for tolerability, pharmacokinetics, and efficacy. Cohort 1 received a single dose of 60 mg noribogaine or placebo. Cohort 2 received a single dose of 120 mg noribogaine or placebo. Cohort 3 received a single dose of 180 mg noribogaine or placebo. […] Headaches were frequent in the placebo and 60 mg noribogaine treatment groups, but were attenuated in the 120 mg and 180 mg dose groups.

[2] = tested on: healthy, drug-free male volunteers; test: Pupillometry (pupillary miosis) in healthy volunteers; format: in vivo, human; details: 3, 10, 30, 60 mg single oral dose
Method: Pulse oximetry and capnography data were collected continuously using a GE Carescape B650 monitoring system from 2 hours prior to dosing and until six hours after dosing, and thereafter at 12, 24, 48 and 72 hours post-dosing. […] Pupillary miosis was assessed by pupillometry.
Summary statistics (means, standard deviations, and coefficients of variation) were determined for each dose group for safety laboratory test data, ECG and pharmacokinetic parameters, and pharmacodynamic variables. Categorical variables were analysed using counts and percentages. Dose-proportionality of AUC and Cmax was assessed using linear regression. The effect of dose on pharmacodynamic parameter values over time was assessed using two-factor analysis of variance (ANOVA). Pairwise comparisons (with Tukey-Kramer adjustment) between each dose group to the placebo were conducted at each time point using the least squares estimates obtained from the ANOVA, using SAS Proc Mixed (SAS ver 6.0).

[3] = Human pharmacokinetic study, single oral tablet, fasting healthy volunteers (serum levels); format: in vivo; details: fasting; for Cmax: human, serum, oral
Method: In double blind studies, fasting healthy volunteers (6 per cohort) were treated once orally with a tablet of noribogaine HCl. In escalating cohorts, the volunteers received 3 mg, 10 mg, 30 mg or 60 mg noribogaine.

[4] = Pharmacokinetics of noribogaine in healthy male volunteers (plasma and urine, LCMSMS); details: for CL/F / AUC0-216 / AUC0-∞ / Cmax / Tmax / T½: mean (SD); for AUC0-216 / AUC0-∞ / Cmax / Tmax / T½: plasma
[5] = tested on: healthy, drug-free male volunteers; test: Cold pressor test in healthy volunteers; format: in vivo, human; details: 3, 10, 30, 60 mg single oral dose; hand immersion duration and VAS pain scores
Method: Analgesic effect was assessed based on duration of hand immersion in ice water and on visual analog scale (VAS) pain scores upon hand removal from the water bath.
Safety and tolerability of noribogaine were tested in the group of volunteers from Example 9. […] Safety evaluations included clinical monitoring, recording of adverse events (AEs), safety laboratory tests, vital signs, ECG telemetry from −2 h to 6 h after dosing, and 12-lead electrocardiograms (ECGs) up to 216 hours post-dosing.

[6] = tested on: opioid-dependent participants; test: Time to resumption of opioid substitution treatment (OST) and opiate withdrawal scales; format: in vivo, human
Method: as §1
Patients were evaluated based on the Clinical Opiate Withdrawal Scale (COWS), Subjective Opiate Withdrawal Scale (SOWS), and Objective Opiate Withdrawal Scale (OOWS) scoring systems over the period of time between administration of noribogaine (or placebo) until resumption of OST. These scales are outlined in Guidelines for the Psychosocially Assisted Pharmacological Treatment of Opioid Dependence, World Health Organization, Geneva (2009), Annex 10, which is incorporated herein by reference in its entirety. The scales measure the intensity of withdrawal symptoms, based on clinical, subjective, and objective indicia.

[7] = tested on: opioid-dependent participants; test: QT interval in opioid-dependent participants; format: in vivo, human; details: 60, 120, 180 mg, first 24 hours post administration
Method: Patients' QT intervals were evaluated at regular time points throughout the study.

[8] = Single dose toxicity in cynomolgus monkeys; format: in vivo, cynomolgus monkey; details: cynomolgus monkey, in vivo; oral gavage; read-out: single dose maximum tolerated dose (MTD)
Method: (§2) The objective of the study was to determine the toxicity and toxicokinetic profile of noribogaine following oral (gavage) administration to the cynomolgus monkey. Each dose was followed by a 7 day washout period. Dosing was staggered by 45 minutes. On study day 15, one animal was administered 80 mg/kg and the other animal was administered 160 mg/kg. The test article was administered as follows in Table 1:
(§3) Parameters monitored on the study included: mortality, clinical signs and body weights. Blood samples were collected for TK evaluation. […] The single dose maximum tolerated dose (MTD) was determined to be greater than 160 mg/kg based on the parameters monitored during the study.

[9] = tested on: cynomolgus monkey; test: Single dose toxicity in cynomolgus monkeys; format: in vivo; details: oral gavage, doses up to and including 160 mg/kg
Method: as §2, §3

In the case of `CC[C@H]1CC2C[C@H]3c4[nH]c5ccc(O)cc5c4CCN(C2)C13` [noribogaine], the “Dose dependence of maximum serum concentration (Cmax)” value [1] is reported as “increased in a dose-dependent manner”, the Pupillary constriction [2] is reported as “no evidence of pupillary constriction” and the Cmax ([3]; single dose of 3 mg) is reported as 5.2 ng/mL. It also gave a Cmax ([3]; single dose of 10 mg) of 14.5 ng/mL, a Cmax ([3]; single dose of 30 mg) of 55.9 ng/mL and a Cmax ([3]; single dose of 60 mg) of 116 ng/mL. For the same molecule, the “mean AUC/24 hr” value ([3]; single dose of 3 mg) was 3.1 ng/mL, the “mean AUC/24 hr” value ([3]; single dose of 10 mg) was 10.6 ng/mL and the “mean AUC/24” value ([3]; single dose of 30 mg) was 29.2 ng/mL. The “mean AUC/24” value ([3]; single dose of 60 mg) was 61 ng/mL, the CL/F ([4]; 3 mg (n = 6)) was 41.4 (7.0) L/h and the AUC0-216 ([4]; 3 mg (n = 6)) was 72.2 (13.2) ng · hr/ml. The “AUC0-∞” value ([4]; 3 mg (n = 6)) was 74.2 (13.1) ng · hr/ml, the Cmax ([4]; 3 mg (n = 6)) was 5.2 (1.4) ng/ml and the Tmax ([4]; 3 mg (n = 6)) was 1.9 (0.6) hr. For the same molecule, the T½ ([4]; 3 mg (n = 6)) was 40.9 (8.7) hr, the CL/F ([4]; 10 mg (n = 6)) was 42.3 (12.0) L/h and the AUC0-216 ([4]; 10 mg (n = 6)) was 251.4 (78.5) ng · hr/ml. The “AUC0-∞” value ([4]; 10 mg (n = 6)) was 254.5 (78.9) ng · hr/ml, the Cmax ([4]; 10 mg (n = 6)) was 14.5 (2.1) ng/ml and the Tmax ([4]; 10 mg (n = 6)) was 2.9 (1.8) hr. The T½ ([4]; 10 mg (n = 6)) was 49.2 (11.5) hr, the CL/F ([4]; 30 mg (n = 6)) was 46.9 (16.4) L/h and the AUC0-216 ([4]; 30 mg (n = 6)) was 677.6 (221.1) ng · hr/ml. For the same molecule, the “AUC0-∞” value ([4]; 30 mg (n = 6)) was 700.4 (223.3) ng · hr/ml, the Cmax ([4]; 30 mg (n = 6)) was 55.9 (14.8) ng/ml and the Tmax ([4]; 30 mg (n = 6)) was 1.8 (0.6) hr. For the same molecule, the T½ ([4]; 30 mg (n = 6)) was 27.6 (7.0)) hr, the CL/F ([4]; 60 mg (n = 6)) was 34.0 (11.4) L/h and the AUC0-216 ([4]; 60 mg (n = 6)) was 1935.4 (725.4) ng · hr/ml. The “AUC0-∞” value ([4]; 60 mg (n = 6)) was 1962.2 (726.5) ng · hr/ml, the Cmax ([4]; 60 mg (n = 6)) was 116.0 (22.5) ng/ml and the Tmax ([4]; 60 mg (n = 6)) was 2.4 (0.6) hr. The T½ ([4]; 60 mg (n = 6)) was 29.1 (9.3) hr, the “Dose proportionality of Cmax and AUC” value ([4]; 3-60 mg) was “Both Cmax and AUC increased linearly with dose” and the Mean half-life estimates ([4]; across dose groups) was 28 to 50 h. For the same molecule, the Volume of distribution ([4]; across dose groups) was 1417 to 3086 L, the “Time of peak concentrations after oral dosing” value ([4]; across dose groups 3-60 mg) was 2 to 3 h and the “Analgesic effect in the cold pressor test” value [5] was “no analgesic effect”. The “Withdrawal symptoms (COWS, OOWS, SOWS, first six hours)” value ([6]; 120 mg) was “generally experienced fewer withdrawal symptoms than the other patients”, the “Average time to resumption of opioids” value ([6]; single 120 mg dose) was “greater than 20 hours” and the “QT interval prolongation (ΔQTc1)” value [7] was “dose-dependent increase in QT interval prolongation”. For the same molecule, the MTD [8] was > 160 mg/kg and the “Mortality or treatment related clinical signs” value [9] was “No mortality or treatment related clinical signs were noted”.
